Values quoted from earlier work in US20050058670A1, “Oral itraconazole composition which is not affected by ingested food and process for preparing same” (priority 2003, published 2005).

- solubility in water: less than 1 μg/ml
SMILES: CCC(C)n1ncn(-c2ccc(N3CCN(c4ccc(OCC5COC(Cn6cncn6)(c6ccc(Cl)cc6Cl)O5)cc4)CC3)cc2)c1=O (stereo not shown) [Itraconazole]
